# Columns and labels:
# Assay in all cases: Kinase profiling in a biochemical assay panel (mobility shift assays and ELISA), %-inhibition at 1 μM; selectivity entropy
# [1] = target: panel of more than 300 wild-type and mutant kinases (313 kinase panel) (Homo sapiens, UniProt O75116); conditions: kinase ROCK2; 1 μM
# [2] = target: panel of more than 300 wild-type and mutant kinases (313 kinase panel) (Homo sapiens, UniProt P08581, Y1235D); conditions: kinase MET(Y1235D); compound at 1 μM
# [3] = target: panel of more than 300 wild-type and mutant kinases (313 kinase panel) (Homo sapiens, UniProt P31749); conditions: kinase AKT1; 1 μM compound
# [4] = target: T1, panel of more than 300 wild-type and mutant kinases (313 kinase panel) (Homo sapiens, UniProt P54760); conditions: kinase EPHB4; compound at 1 μM
# T1 sequence (P54760 16-987): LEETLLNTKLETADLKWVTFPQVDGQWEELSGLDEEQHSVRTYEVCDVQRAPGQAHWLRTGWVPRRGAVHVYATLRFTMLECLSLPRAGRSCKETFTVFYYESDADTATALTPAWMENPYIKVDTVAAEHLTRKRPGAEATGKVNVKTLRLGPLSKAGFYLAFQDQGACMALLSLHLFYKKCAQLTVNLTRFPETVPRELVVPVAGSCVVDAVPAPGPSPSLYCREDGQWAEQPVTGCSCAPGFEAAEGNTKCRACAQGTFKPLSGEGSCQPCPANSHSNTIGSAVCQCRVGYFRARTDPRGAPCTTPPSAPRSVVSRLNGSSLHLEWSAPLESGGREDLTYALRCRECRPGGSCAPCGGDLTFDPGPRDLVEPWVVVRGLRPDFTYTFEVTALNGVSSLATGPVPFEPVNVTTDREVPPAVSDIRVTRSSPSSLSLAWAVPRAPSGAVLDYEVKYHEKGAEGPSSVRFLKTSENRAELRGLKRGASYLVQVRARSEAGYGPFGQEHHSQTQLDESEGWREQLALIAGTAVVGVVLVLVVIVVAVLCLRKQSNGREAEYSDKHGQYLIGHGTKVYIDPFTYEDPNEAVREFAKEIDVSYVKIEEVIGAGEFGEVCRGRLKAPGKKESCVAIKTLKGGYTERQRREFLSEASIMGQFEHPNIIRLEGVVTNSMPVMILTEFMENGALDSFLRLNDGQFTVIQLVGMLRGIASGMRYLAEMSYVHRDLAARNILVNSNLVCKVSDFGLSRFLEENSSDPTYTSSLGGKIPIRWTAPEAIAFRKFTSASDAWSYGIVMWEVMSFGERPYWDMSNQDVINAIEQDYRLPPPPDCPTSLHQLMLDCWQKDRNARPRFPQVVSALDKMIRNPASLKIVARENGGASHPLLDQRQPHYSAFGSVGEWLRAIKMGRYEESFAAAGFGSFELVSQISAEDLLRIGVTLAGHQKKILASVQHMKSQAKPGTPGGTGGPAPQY
# [5] = target: T2, panel of more than 300 wild-type and mutant kinases (313 kinase panel) (Homo sapiens, UniProt Q13976); conditions: kinase PGK; 1 μM
# T2 sequence (Q13976 1-671): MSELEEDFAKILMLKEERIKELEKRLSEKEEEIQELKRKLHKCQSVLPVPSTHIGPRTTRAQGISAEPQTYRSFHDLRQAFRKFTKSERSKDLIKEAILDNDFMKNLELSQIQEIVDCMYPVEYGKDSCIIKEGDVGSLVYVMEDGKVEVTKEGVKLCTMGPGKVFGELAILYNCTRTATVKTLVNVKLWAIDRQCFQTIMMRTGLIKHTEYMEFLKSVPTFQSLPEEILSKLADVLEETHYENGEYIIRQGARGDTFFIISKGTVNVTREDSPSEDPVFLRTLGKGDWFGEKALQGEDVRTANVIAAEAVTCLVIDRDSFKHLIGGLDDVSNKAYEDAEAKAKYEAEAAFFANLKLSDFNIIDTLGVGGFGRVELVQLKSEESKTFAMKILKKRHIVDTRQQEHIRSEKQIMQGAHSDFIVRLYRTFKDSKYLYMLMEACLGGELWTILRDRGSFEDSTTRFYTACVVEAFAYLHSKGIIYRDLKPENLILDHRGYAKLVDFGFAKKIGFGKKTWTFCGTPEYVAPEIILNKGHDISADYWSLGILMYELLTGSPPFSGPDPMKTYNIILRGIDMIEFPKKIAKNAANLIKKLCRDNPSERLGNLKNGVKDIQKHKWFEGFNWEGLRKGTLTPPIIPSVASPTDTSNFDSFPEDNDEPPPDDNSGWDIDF
# [6] = target: T3, panel of more than 300 wild-type and mutant kinases (313 kinase panel) (Homo sapiens, UniProt Q9NWZ3); conditions: kinase IRAK4; compound at 1 μM
# T3 sequence (Q9NWZ3 1-460): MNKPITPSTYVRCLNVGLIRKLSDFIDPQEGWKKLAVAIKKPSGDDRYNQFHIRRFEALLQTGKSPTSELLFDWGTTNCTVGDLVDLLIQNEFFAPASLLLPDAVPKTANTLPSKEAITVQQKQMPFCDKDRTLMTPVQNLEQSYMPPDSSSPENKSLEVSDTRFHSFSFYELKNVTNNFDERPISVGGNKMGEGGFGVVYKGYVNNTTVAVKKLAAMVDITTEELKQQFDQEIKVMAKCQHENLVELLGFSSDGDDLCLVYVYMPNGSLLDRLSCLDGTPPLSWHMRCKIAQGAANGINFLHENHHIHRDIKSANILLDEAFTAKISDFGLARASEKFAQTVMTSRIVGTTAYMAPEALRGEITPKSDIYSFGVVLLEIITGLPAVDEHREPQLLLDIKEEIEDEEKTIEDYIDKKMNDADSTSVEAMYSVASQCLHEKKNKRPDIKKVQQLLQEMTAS
# [7] = target: panel of more than 300 wild-type and mutant kinases (313 kinase panel) (Homo sapiens, UniProt Q9UKE5); conditions: kinase TNIK; 1 μM
# [8] = target: panel of more than 300 wild-type and mutant kinases (313 kinase panel) (Homo sapiens, UniProt Q9Y6E0); conditions: kinase MST3; 1 μM
# Sequence of panel of more than 300 wild-type and mutant kinases (313 kinase panel) (Homo sapiens, UniProt P31749) (P31749 whole entry, change not shown): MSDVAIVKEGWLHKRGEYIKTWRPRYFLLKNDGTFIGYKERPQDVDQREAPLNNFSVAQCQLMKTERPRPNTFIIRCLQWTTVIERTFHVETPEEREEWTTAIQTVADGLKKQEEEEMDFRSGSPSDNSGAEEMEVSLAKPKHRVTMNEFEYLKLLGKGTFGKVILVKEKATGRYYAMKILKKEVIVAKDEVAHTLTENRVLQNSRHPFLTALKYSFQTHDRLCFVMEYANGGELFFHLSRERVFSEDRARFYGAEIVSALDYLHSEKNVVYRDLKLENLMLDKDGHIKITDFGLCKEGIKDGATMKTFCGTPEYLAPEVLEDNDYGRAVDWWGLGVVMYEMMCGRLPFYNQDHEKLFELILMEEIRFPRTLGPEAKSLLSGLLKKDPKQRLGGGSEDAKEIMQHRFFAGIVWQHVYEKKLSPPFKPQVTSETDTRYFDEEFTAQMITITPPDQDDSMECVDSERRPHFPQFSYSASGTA
# Sequence of panel of more than 300 wild-type and mutant kinases (313 kinase panel) (Homo sapiens, UniProt Q9UKE5) (Q9UKE5 whole entry, change not shown): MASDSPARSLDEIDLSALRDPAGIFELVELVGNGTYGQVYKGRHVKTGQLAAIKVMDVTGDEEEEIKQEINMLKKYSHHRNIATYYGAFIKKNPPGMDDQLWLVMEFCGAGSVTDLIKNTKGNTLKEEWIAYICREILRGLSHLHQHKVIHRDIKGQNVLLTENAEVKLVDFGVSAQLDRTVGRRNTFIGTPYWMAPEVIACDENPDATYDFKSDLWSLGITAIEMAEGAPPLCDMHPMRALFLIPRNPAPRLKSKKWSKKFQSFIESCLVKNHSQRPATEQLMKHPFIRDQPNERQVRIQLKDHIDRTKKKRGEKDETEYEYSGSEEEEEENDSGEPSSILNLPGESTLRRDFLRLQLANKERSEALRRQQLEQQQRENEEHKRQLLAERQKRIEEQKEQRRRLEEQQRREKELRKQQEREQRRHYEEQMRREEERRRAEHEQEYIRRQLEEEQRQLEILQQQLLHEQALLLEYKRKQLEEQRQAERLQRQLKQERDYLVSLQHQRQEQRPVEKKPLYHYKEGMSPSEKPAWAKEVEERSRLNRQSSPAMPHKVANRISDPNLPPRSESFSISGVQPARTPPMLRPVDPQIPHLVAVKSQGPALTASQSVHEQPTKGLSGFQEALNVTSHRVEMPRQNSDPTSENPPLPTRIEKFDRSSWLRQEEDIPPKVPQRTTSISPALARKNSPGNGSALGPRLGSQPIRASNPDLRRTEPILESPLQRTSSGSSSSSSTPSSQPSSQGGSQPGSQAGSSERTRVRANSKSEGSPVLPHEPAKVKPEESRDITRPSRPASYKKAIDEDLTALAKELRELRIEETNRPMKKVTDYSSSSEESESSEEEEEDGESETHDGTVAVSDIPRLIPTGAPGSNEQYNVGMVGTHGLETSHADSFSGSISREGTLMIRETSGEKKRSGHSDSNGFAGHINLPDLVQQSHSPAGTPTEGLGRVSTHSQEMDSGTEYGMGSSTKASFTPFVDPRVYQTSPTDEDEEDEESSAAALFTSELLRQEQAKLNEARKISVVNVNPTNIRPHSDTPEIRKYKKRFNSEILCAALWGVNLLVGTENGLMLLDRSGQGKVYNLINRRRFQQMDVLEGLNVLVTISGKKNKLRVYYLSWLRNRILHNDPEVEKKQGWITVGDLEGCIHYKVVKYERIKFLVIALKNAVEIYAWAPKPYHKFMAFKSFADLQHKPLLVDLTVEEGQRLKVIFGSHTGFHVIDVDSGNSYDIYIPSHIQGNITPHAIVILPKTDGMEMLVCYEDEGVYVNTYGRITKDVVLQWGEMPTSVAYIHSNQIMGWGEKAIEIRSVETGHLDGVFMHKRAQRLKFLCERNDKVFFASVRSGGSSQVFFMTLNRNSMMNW
# Sequence of panel of more than 300 wild-type and mutant kinases (313 kinase panel) (Homo sapiens, UniProt P08581, Y1235D) (P08581 25-1390 Y1235D): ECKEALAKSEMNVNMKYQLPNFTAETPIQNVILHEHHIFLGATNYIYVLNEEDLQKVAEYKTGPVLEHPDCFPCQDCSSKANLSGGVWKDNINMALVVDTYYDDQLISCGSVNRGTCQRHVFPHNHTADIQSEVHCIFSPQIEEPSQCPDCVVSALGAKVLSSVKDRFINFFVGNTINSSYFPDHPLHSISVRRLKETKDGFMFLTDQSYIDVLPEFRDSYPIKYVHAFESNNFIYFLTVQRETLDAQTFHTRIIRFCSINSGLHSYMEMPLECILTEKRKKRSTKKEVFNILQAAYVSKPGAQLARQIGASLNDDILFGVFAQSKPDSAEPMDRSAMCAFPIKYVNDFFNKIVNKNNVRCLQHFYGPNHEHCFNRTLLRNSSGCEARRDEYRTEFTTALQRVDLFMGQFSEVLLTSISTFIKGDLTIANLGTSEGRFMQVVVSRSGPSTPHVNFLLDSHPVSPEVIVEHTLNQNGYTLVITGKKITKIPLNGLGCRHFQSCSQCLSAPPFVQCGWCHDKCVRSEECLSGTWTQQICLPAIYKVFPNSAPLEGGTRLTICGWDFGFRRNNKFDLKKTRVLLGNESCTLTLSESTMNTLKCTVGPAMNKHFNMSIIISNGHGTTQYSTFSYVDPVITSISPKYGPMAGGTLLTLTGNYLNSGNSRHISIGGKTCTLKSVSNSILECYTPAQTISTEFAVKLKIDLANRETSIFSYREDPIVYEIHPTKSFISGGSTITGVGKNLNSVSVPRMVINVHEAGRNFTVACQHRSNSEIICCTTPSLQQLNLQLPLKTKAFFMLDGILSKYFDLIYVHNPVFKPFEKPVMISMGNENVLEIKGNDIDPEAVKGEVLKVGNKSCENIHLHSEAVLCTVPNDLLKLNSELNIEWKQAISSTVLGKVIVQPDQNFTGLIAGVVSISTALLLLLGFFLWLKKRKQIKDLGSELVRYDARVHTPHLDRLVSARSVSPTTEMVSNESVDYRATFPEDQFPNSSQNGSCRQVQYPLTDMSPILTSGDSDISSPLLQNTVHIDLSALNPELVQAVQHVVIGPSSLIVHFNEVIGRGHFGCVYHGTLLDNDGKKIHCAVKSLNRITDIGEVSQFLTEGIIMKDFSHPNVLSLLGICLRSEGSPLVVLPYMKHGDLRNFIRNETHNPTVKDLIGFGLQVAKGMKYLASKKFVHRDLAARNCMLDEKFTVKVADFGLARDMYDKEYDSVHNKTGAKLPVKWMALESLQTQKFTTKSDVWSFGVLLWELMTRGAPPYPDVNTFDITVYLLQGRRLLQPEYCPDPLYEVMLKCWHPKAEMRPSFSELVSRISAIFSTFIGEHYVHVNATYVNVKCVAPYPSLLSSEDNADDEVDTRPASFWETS
SMILES,%-inhibition of ROCK2 [1] [%],%-inhibition of MET(Y1235D) [2] [%],"%-inhibition, AKT1 [3] [%]",%-inhibition of EPHB4 [4] [%],%-inhibition of PGK [5] [%],%-inhibition of IRAK4 [6] [%],%-inhibition of TNIK [7] [%],%-inhibition of MST3 [8] [%]
CO[C@H]1C[C@@H]2CC[C@@H](C)[C@@](O)(O2)C(=O)C(=O)N2CCCC[C@H]2C(=O)O[C@H]([C@H](C)C[C@@H]2CC[C@@H](OC(=O)C(C)(CO)CO)[C@H](OC)C2)CC(=O)[C@H](C)/C=C(\C)[C@@H](O)[C@@H](OC)C(=O)[C@H](C)C[C@H](C)/C=C/C=C/C=C/1C [temsirolimus],-5.66,-6.4,-4,-9,-5.57,-5.36,-2.54,-3.6
CC(=O)Nc1cccc(-n2c(=O)n(C3CC3)c(=O)c3c(Nc4ccc(I)cc4F)n(C)c(=O)c(C)c32)c1 [trametinib],3,-1.5,-3,-3.38,-1.31,-5,3,1.75
CCCS(=O)(=O)Nc1ccc(F)c(C(=O)c2c[nH]c3ncc(-c4ccc(Cl)cc4)cc23)c1F [vemurafenib],-0.177,2.5,-4.52,3.73,-4.33,-4.29,33,-1.73

# From paper PMC3961306, “Comparison of the Cancer Gene Targeting and Biochemical Selectivities of All Targeted Kinase Inhibitors Approved for Clinical Use” (PLoS ONE, 2014)
